Legend:
[1] = tested on: mild to moderate asthma patients; settings: human, in vivo
[2] = tested on: subjects with severe asthma treated with oral corticosteroids; assay: Lidocaine for reducing concurrent corticosteroids in steroid dependent severe asthma (Example 7); assay type: in vivo, human; settings: interim, all patients past visit 7

## CCN(CC)CC(=O)Nc1c(C)cccc1C [lidocaine, acetamide 2-(diethylamino)-N-(2,6-dimethylphenyl)]
[1]
  bronchospasm (decrease in FEV1 >20% 30 min after aerosol administration): no reports of bronchospasm
  loss of gag reflex: No loss of gag reflex was reported
  tolerability and safety overall: no significant adverse events related to study drug
  tracheal aspiration of food or liquid: No case of tracheal aspiration of food or liquid was reported
[2]
  relation of reported adverse events to treatment: None of the reported adverse events were thought to be related to the lidocaine treatment

Source: US20060062739A1 (priority 2004, published 2006)
